Experimental data as given in US10253002B2, “Compounds and methods of treating infections” (Neoculi Pty Ltd., priority 2013, dated 2019).
≈ marks a conversion by molar mass, not a printed value. Where “and” joins values, the source holds several entries; their conditions need not be identical. Equal entries are not always repeated.

Tests used:
Assay in all cases: Broth microdilution MIC, Example 7 (NCL812 and analogues)
[1] = system: MRSA; format: cell-based, Staphylococcus aureus; conditions: 24 hours, 1st and 2nd replicate rows; for MIC (μg/ml) at 24 hours, MRSA 1: isolate MRSA 1; for MIC (μg/ml) at 24 hours, MRSA 2: isolate MRSA 2
Description: (§1) Minimum inhibitory concentrations (μg/ml) were determined using the broth microdilution method recommended by the Clinical and Laboratory Standards Institute (CLSI). MIC breakpoints were determined by visual assessment and then confirmed using an ELISA plate reader, measuring absorbance levels at 600 nm. Bacterial growth (turbidity) in the wells with antimicrobial was compared with the amount of growth (turbidity) in the growth-control well (containing no antimicrobial). All isolates were tested in duplicate, if there was a difference of greater than one two-fold dilution in the results, the test was repeated a third time. The purity of the isolates was closely monitored during testing by subculturing the prepared bacterial inoculum onto SBA (sheep blood agar). […] The MIC50, MIC20 and MIC range (minimum and maximum) were calculated for each of the bacterial groups.
(§2) MICs were determined against two MRSA strains, two VRE strains and one strain each of E. coli and Pseudomonas aeruginosa.

[2] = system: Escherichia coli; format: cell-based; conditions: 24 hours; 1st and 2nd replicate rows
[3] = system: VRE; format: cell-based, Enterococcus spp.; conditions: for MIC (μg/ml) at 24 hours, VRE 1: isolate VRE 1; for MIC (μg/ml) at 24 hours, VRE 1 / MIC (μg/ml) at 24 hours, VRE 2: 1st and 2nd replicate rows; for MIC (μg/ml) at 24 hours, VRE 2: isolate VRE 2
Description: as §1, §2

[4] = system: Pseudomonas aeruginosa; format: cell-based; conditions: 24 hours; 1st and 2nd replicate rows

SMILES | MIC (μg/ml) at 24 hours, MRSA 1 [1] [µg/mL] | MIC (μg/ml) at 24 hours, MRSA 2 [1] [µg/mL] | MIC (μg/ml) at 24 hours, E. coli [2] [µg/mL] | MIC (μg/ml) at 24 hours, VRE 1 [3] | MIC (μg/ml) at 24 hours, VRE 2 [3] [µg/mL] | MIC (μg/ml) at 24 hours, P. aeruginosa [4] [µg/mL] | activity against VRE among analogues ([3]; MIC testing, two VRE strains)
N#Cc1ccccc1/C=N/NC(=O)N/N=C/c1ccccc1C#N [NCL008] | >128 | >128 | >128 | >128 µg/mL | >128 | >128 | 
N#Cc1cccc(/C=N/NC(=O)N/N=C/c2cccc(C#N)c2)c1 [NCL009] | >128 | >128 | >128 | >128 µg/mL | >128 | >128 | 
COc1cccc(/C=N/NC(=O)N/N=C/c2cccc(OC)c2)c1 [NCL010] | >128 | >128 | >128 | >128 µg/mL | >128 | >128 | 
O=C(NN=Cc1cccc(C(F)(F)F)c1)NN=Cc1cccc(C(F)(F)F)c1 [NCL011] | >128 | >128 | >128 | >128 µg/mL | 32 (≈ 79.5 µM) | >128 | greatest activity
O=C(NN=Cc1ccc(C(F)(F)F)cc1)NN=Cc1ccc(C(F)(F)F)cc1 [NCL012] | >128 | >128 | >128 | >128 µg/mL | >128 | >128 | 
O=C(N/N=C/c1ccccc1C(F)(F)F)N/N=C/c1ccccc1C(F)(F)F [NCL013] | >128 | >128 | >128 | >128 µg/mL | >128 | >128 | 
NC(=O)N/N=C/c1ccc(Cl)cc1 [NCL014] | >128 | >128 | >128 | >128 µg/mL | >128 | >128 | 
Cl.N=C(N)N/N=C/c1ccccc1Cl [NCL015] | >128 | >128 | >128 | >128 µg/mL | 128 | >128 | 
Cl.N=C(N)N/N=C/c1ccccc1F [NCL016] | >128 | >128 | >128 | >128 µg/mL | >128 | >128 | 
Cl.N=C(N)NN=Cc1cccc(F)c1 [NCL017] | >128 | >128 | >128 | >128 µg/mL | >128 | >128 | 
Cc1ccccc1/C=N/NC(=O)N/N=C/c1ccccc1C [NCL018] | >128 | >128 | >128 | >128 µg/mL | >128 | >128 | 
Cc1cccc(C=NNC(=O)NN=Cc2cccc(C)c2)c1 [NCL019] | >128 | >128 | >128 | >128 µg/mL | >128 | >128 | 
Cl.N=C(N/N=C/c1ccccc1Cl)N/N=C/c1ccccc1Cl [NCL020] | >128 | >128 | >128 | >128 µg/mL | >128 | >128 | 
Cl.N=C(NN=Cc1ccccc1F)NN=Cc1ccccc1F [NCL022] | >128 | >128 | >128 | >128 µg/mL | >128 | >128 | 
Cl.N#Cc1ccc(C=NNC(=N)NN=Cc2ccc(C#N)cc2)cc1 [NCL024] | >128 | >128 | >128 | >128 µg/mL | >128 | >128 | 
Cl.N#Cc1ccccc1C=NNC(=N)NN=Cc1ccccc1C#N [NCL025] | >128 | >128 | >128 | >128 µg/mL | >128 | >128 | 
Cl.N#Cc1cccc(C=NNC(=N)NN=Cc2cccc(C#N)c2)c1 [NCL026] | >128 | >128 | >128 | >128 µg/mL | >128 | >128 | 
COc1ccc(/C=N/NC(=N)N/N=C/c2ccc(OC)cc2)cc1.Cl [NCL027] | >128 | >128 | >128 | >128 µg/mL | >128 | >128 | 
COc1ccccc1C=NNC(=N)NN=Cc1ccccc1OC.Cl [NCL028] | >128 | >128 | >128 | >128 µg/mL | 128 | >128 | 
Cl.N#Cc1ccc(/C=N/NC(=N)N)cc1 [NCL031] | >128 | >128 | >128 | >128 µg/mL | >128 | >128 | 
Cl.N#Cc1ccccc1/C=N/NC(=N)N [NCL032] | >128 | >128 | >128 | >128 µg/mL | >128 | >128 | 
Cl.N#Cc1cccc(/C=N/NC(=N)N)c1 [NCL033] | >128 | >128 | >128 | >128 µg/mL | >128 | >128 | 
COc1ccccc1/C=N/NC(=N)N.Cl [NCL034] | >128 | >128 | >128 | >128 µg/mL | >128 | >128 | 
Cl.N=C(N/N=C/c1ccccc1C(F)(F)F)N/N=C/c1ccccc1C(F)(F)F [NCL036] | >128 | >128 | >128 | >128 µg/mL | >128 | >128 | 
Cl.N=C(NN=Cc1cccc(C(F)(F)F)c1)NN=Cc1cccc(C(F)(F)F)c1 [NCL037] | >128 | >128 | >128 | >126 µg/mL and >128 µg/mL | >128 | >128 | 
Cl.N=C(N)N/N=C/c1ccccc1C(F)(F)F [NCL042] | >128 | >128 | >128 | >128 µg/mL | >128 | >128 | 
Cc1ccccc1/C=N/NC(=N)N.Cl [NCL045] | >128 | >128 | >128 | >128 µg/mL | >128 | >128 | 
